According to paper PMC9963121, “Development of Combretastatin A-4 Analogues as Potential Anticancer Agents with Improved Aqueous Solubility” (Molecules, 2023):

Test system: HCT-116 colorectal cancer cell
Assay: MTT cell growth inhibition assay, HCT-116 colorectal cancer cells
Type: cell-based, human
Conditions: Homo sapiens, HCT-116; MTT; mean ± SD of three experiments
Source text: (§1) Initially, we designed and synthesised seven compounds—9a and 12a1–12a6—and evaluated the anticancer activity and aqueous solubility. We evaluated the cytotoxic effects of these stilbene nitrile analogues against a panel of four human cancer cell lines (HCT-116, BEL-7402, MCF-7 and AGS) and two human non-cancerous normal cell lines (L-02 and MCF-10A), using CA-4 as a control. The compounds were screened for aqueous solubility in 0.01 M PBS using a high throughput UV method. […] It is possible that the size of the nitrogen heterocycle had little effect on the activity of these compounds. […] The aqueous solubility of all the compounds 12a1–12a6 was higher than that of 9a, particularly that of 12a1 and 12a2 containing piperazine rings. […] Of the six compounds with improved aqueous solubility, 12a1 had the best activity.
(§2) All human cell lines were used in this study. AGS gastric cancer cell, BEL-7402 liver cancer cell, HCT-116 colorectal cancer cell, L-02 normal liver cell, MCF-7 breast cancer cell, and MCF-10A normal breast cell were initially purchased from American Type Culture Collection (ATCC, Manassas, VA, USA). RPMI-1640 media, DMEM and FBS, were provided by Gibco Company. The cells were maintained in DMEM or RPMI-1640, supplemented with 10% FBS, 100 IU/mL penicillin and […] streptomycin, and at 37 °C in a humidified atmosphere containing 5% CO2.
(§3) The experiment was carried out according to the method of reference.

| SMILES | IC50 [µM] |
| --- | --- |
| COc1ccc(/C(C#N)=C/c2ccc(NC(=O)CN3CCN(C)CC3)cc2C)cc1OC [12d1] | 6.67 ± 2.38 |
| CCN1CCN(CC(=O)Nc2ccc(/C=C(\C#N)c3ccc(OC)c(OC)c3)c(C)c2)CC1 [12d2] | 24 ± 2.46 |
| COc1cc(/C(C#N)=C/c2ccc(C)cc2)cc(OC)c1OC [compound 2, reference compound] | 0.61 ± 0.16 |
| COc1cc(/C(C#N)=C/c2ccc(NC(=O)CN3CCN(C(C)C)CC3)cc2)cc(OC)c1OC.Cl [compound 15] | 8.32 ± 0.3 |
| COc1cc(/C(C#N)=C/c2ccc(NC(=O)CN3CCN(CCOCCO)CC3)cc2)cc(OC)c1OC [compound 16] | 12.6 ± 1.74 |

Test system: AGS gastric cancer cell
Assay: MTT cell growth inhibition assay, AGS gastric cancer cells
Type: cell-based
Conditions: Homo sapiens, mean ± SD of three experiments
Source text: as §1, §2, §3

| SMILES | IC50 [µM] |
| --- | --- |
| COc1ccc(/C(C#N)=C/c2ccc(NC(=O)CN3CCN(C)CC3)cc2C)cc1OC [12d1] | 40 ± 3.81 |
| CCN1CCN(CC(=O)Nc2ccc(/C=C(\C#N)c3ccc(OC)c(OC)c3)c(C)c2)CC1 [12d2] | 15.3 ± 3.86 |
| COc1cc(/C(C#N)=C/c2ccc(NC(=O)CN3CCN(C(C)C)CC3)cc2)cc(OC)c1OC.Cl [compound 15] | 15.3 ± 3.02 |
| COc1cc(/C(C#N)=C/c2ccc(NC(=O)CN3CCN(CCOCCO)CC3)cc2)cc(OC)c1OC [compound 16] | 14.8 ± 3.37 |

Test system: BEL-7402 liver cancer cell
Assay: MTT cell growth inhibition assay, BEL-7402 liver cancer cells
Type: cell-based
Conditions: Homo sapiens, mean ± SD of three experiments, read-out: IC50 BEL-7402 Hepatoma Cells
Source text: as §1, §2, §3

| SMILES | IC50 [µM] |
| --- | --- |
| COc1ccc(/C(C#N)=C/c2ccc(NC(=O)CN3CCN(C)CC3)cc2C)cc1OC [12d1] | 9.53 ± 0.93 |
| CCN1CCN(CC(=O)Nc2ccc(/C=C(\C#N)c3ccc(OC)c(OC)c3)c(C)c2)CC1 [12d2] | 21.3 ± 0.71 |
| COc1cc(/C(C#N)=C/c2ccc(NC(=O)CN3CCN(C(C)C)CC3)cc2)cc(OC)c1OC.Cl [compound 15] | 14.7 ± 1.09 |
| COc1cc(/C(C#N)=C/c2ccc(NC(=O)CN3CCN(CCOCCO)CC3)cc2)cc(OC)c1OC [compound 16] | 14.4 ± 2.38 |

Test system: MCF-7 breast cancer cell
Assay: MTT cell growth inhibition assay, MCF-7 breast cancer cells
Type: cell-based
Conditions: Homo sapiens, MCF7, mean ± SD of three experiments
Source text: as §1, §2, §3

| SMILES | IC50 [µM] |
| --- | --- |
| COc1ccc(/C(C#N)=C/c2ccc(NC(=O)CN3CCN(C)CC3)cc2C)cc1OC [12d1] | 33.4 ± 0.84 |
| CCN1CCN(CC(=O)Nc2ccc(/C=C(\C#N)c3ccc(OC)c(OC)c3)c(C)c2)CC1 [12d2] | 28.7 ± 3.14 |
| COc1cc(/C(C#N)=C/c2ccc(NC(=O)CN3CCN(C(C)C)CC3)cc2)cc(OC)c1OC.Cl [compound 15] | 12.2 ± 0.93 |
| COc1cc(/C(C#N)=C/c2ccc(NC(=O)CN3CCN(CCOCCO)CC3)cc2)cc(OC)c1OC [compound 16] | 31.2 ± 4.73 |

Test system: L-02 normal liver cell
Assay: MTT cell growth inhibition assay, L-02 normal liver cells
Type: cell-based
Conditions: Homo sapiens, mean ± SD of three experiments
Source text: as §1, §2, §3

| SMILES | IC50 [µM] |
| --- | --- |
| COc1ccc(/C(C#N)=C/c2ccc(NC(=O)CN3CCN(C)CC3)cc2C)cc1OC [12d1] | 42.4 ± 1.91 |
| CCN1CCN(CC(=O)Nc2ccc(/C=C(\C#N)c3ccc(OC)c(OC)c3)c(C)c2)CC1 [12d2] | 25.8 ± 2.56 |
| COc1cc(/C(C#N)=C/c2ccc(NC(=O)CN3CCN(C(C)C)CC3)cc2)cc(OC)c1OC.Cl [compound 15] | 22.6 ± 1.36 |
| COc1cc(/C(C#N)=C/c2ccc(NC(=O)CN3CCN(CCOCCO)CC3)cc2)cc(OC)c1OC [compound 16] | 23.4 ± 3.61 |

Test system: MCF-10A normal breast cell
Assay: MTT cell growth inhibition assay, MCF-10A normal breast cells
Type: cell-based
Conditions: Homo sapiens, mean ± SD of three experiments, read-out: IC50 MCF-10A Normal Breast Epithelial Cells
Source text: as §1, §2, §3

| SMILES | IC50 [µM] |
| --- | --- |
| COc1ccc(/C(C#N)=C/c2ccc(NC(=O)CN3CCN(C)CC3)cc2C)cc1OC [12d1] | 54.5 ± 13.2 |
| CCN1CCN(CC(=O)Nc2ccc(/C=C(\C#N)c3ccc(OC)c(OC)c3)c(C)c2)CC1 [12d2] | 38.4 ± 4.48 |
| COc1cc(/C(C#N)=C/c2ccc(NC(=O)CN3CCN(C(C)C)CC3)cc2)cc(OC)c1OC.Cl [compound 15] | 21 ± 4.73 |
| COc1cc(/C(C#N)=C/c2ccc(NC(=O)CN3CCN(CCOCCO)CC3)cc2)cc(OC)c1OC [compound 16] | 18.9 ± 2.95 |

Test system: not listed separately
Assay: Aqueous solubility in 0.01 M PBS, high throughput UV method
Type: physicochemical
Conditions: 0.01 M PBS; ratio to 9a
Source text: as §1
The aqueous solubility was determined as a previously reported procedure. Put simply, a certain amount of powdered compound was placed in a 2 mL centrifuge tube and mixed with an appropriate volume of aqueous phosphate buffer (10 mM, pH 7.4) to make the whole system supersaturated. The mixtures were sonicated (KQ5200DE numerical control ultrasonic cleaner, Kunshan Ultrasonic Instrument Co., Ltd., SuZhou, China) for 20 min. After sonication, the mixture was allowed to equilibrate at RT (22 ± 2 °C) for 1.5 h with vortex shaking (1200 rpm). Then centrifuged at 3000 rpm for 15 min (1-14k, sigma, Darmstadt, Germany), the supernatant was filtered with a 0.22 µM filter membrane. And then, take 150 µL of filtrate and add it to 96-well UV plate with triplicate. Draw 150 μL of blank solution was added into plate as blank control. The 96-well UV plate prepared above was read on a Synergy HTX Multifunctional Microplate Reader (BioTek, Vermont, USA) at 294 nm. The absorbance of the sample was corrected according to the UV response of the sample and blank solution, and the corrected UV response values were used for solubility calculations by bringing into the standard curve of the compound. […]
1.5. Solubility Assessment
The aqueous solubility was determined as previously reported using the high throughput solubility screens procedure published by Bruno Bard et al [9. 10]. Put simply, a certain amount of powdered compound was placed in a 2 ml centrifuge tube and mixed with an appropriate volume of aqueous phosphate buffer (0.01 M, pH 7.4) to make the whole system supersaturated. The mixtures were sonicated (KQ5200DE numerical control ultrasonic cleaner, Kunshan Ultrasonic Instrument Co., Ltd., China) for 20 min. After sonication, the mixture was allowed to equilibrate at room temperature (22 ± 2°C) for 1.5 h with vortex shaking (1200 rpm). Then the centrifuge tube was put into the centrifuge (1-14k, sigma, Germany), centrifuged with 3000 rpm for 15 minutes, 0.22 µM filter membrane filtration supernatant, then take 150 µl filtrate and add it to 96-well UV plate, with three well for each compound. Draw 150 μL blank solution were added into 96 well-plate as blank control. The 96-well UV […]
plate prepared above was read on a SynergyHTX Multifunctional microplate reader (BioTek, USA) at 338 nm (compounds 12a-12d and 15-20) or 370 nm (compounds 9a-d). The absorbance of the sample was corrected according to the UV response of the sample and blank solution, and the corrected UV responses value were used for solubility calculations by bring into the standard curve of the compound. […]

| SMILES | Increase of aqueous solubility compared with 9a |
| --- | --- |
| COc1cc(/C(C#N)=C/c2ccc(NC(=O)CN3CCN(CCOCCO)CC3)cc2)cc(OC)c1OC [compound 16] | more than 231 times |

Same assay, conditions: Figure 1

| SMILES | Water solubility (in words) |
| --- | --- |
| COc1cc(/C(C#N)=C/c2ccc(C)cc2)cc(OC)c1OC [compound 2, reference compound] | Poor water solubility |

Same assay, conditions: aqueous phosphate buffer, aqueous buffer; sodium phosphate buffer 0.01 M, pH 7.4, 22 ± 2 °C; mean ± SD

| SMILES | solubility thermodynamic at 1.5 h [mg/mL] |
| --- | --- |
| COc1ccc(/C(C#N)=C/c2ccc(NC(=O)CN3CCN(C)CC3)cc2C)cc1OC [12d1] | 0.124 ± 0.0087 |
| CCN1CCN(CC(=O)Nc2ccc(/C=C(\C#N)c3ccc(OC)c(OC)c3)c(C)c2)CC1 [12d2] | 0.0851 ± 0.0132 |
| COc1cc(/C(C#N)=C/c2ccc(C)cc2)cc(OC)c1OC [compound 2, reference compound] | 0.004 |
| COc1cc(/C(C#N)=C/c2ccc(NC(=O)CN3CCN(C(C)C)CC3)cc2)cc(OC)c1OC.Cl [compound 15] | 8.62 ± 0.525 |
| COc1cc(/C(C#N)=C/c2ccc(NC(=O)CN3CCN(CCOCCO)CC3)cc2)cc(OC)c1OC [compound 16] | 2.5 ± 0.266 |
